Numbers after ± are expanded uncertainties.
Assay: molar heat capacity at constant pressure
Conditions: 101.33 kPa, Crystal, Vacuum adiabatic calorimetry

O=C[C@H](O)[C@@H](O)[C@H](O)CO [D-xylose]
Conditions | molar heat capacity at constant pressure [J/K/mol]
0.5 K | 0.0003448
1 K | 0.0013
1.5 K | 0.003533
1.9 K | 0.006645
2 K | 0.007825 ± 0.01
2.04 K | 0.008242
2.083 K | 0.008788
2.243 K | 0.01097
2.3 K | 0.01187
2.472 K | 0.01471
2.5 K | 0.01512 ± 0.01
2.538 K | 0.01596
2.632 K | 0.01783
2.787 K | 0.02124 ± 0.041
2.901 K | 0.02401 ± 0.041
3 K | 0.02656 ± 0.01
3.078 K | 0.02907 ± 0.041
3.204 K | 0.03288 ± 0.041
3.413 K | 0.04037 ± 0.041
3.5 K | 0.04351 ± 0.01
3.544 K | 0.04525 ± 0.041
3.773 K | 0.05561 ± 0.041
3.939 K | 0.06374 ± 0.041
4 K | 0.06758 ± 0.011
4.203 K | 0.07931 ± 0.041
4.383 K | 0.09097 ± 0.041
4.5 K | 0.1006 ± 0.011
4.66 K | 0.1124 ± 0.041
4.87 K | 0.1305 ± 0.041
5 K | 0.1446 ± 0.011
5.179 K | 0.1619 ± 0.041
5.436 K | 0.1916 ± 0.041
5.5 K | 0.2018 ± 0.012
5.775 K | 0.2386 ± 0.041
6 K | 0.2744 ± 0.013
6.082 K | 0.2866 ± 0.041
6.466 K | 0.3591 ± 0.041
6.5 K | 0.3648 ± 0.014
6.745 K | 0.4181 ± 0.041
7 K | 0.4752 ± 0.015
7.159 K | 0.5189 ± 0.042
7.497 K | 0.6119 ± 0.042
7.5 K | 0.6076 ± 0.016
7.959 K | 0.7584 ± 0.042
8 K | 0.7638 ± 0.018
8.353 K | 0.8969 ± 0.043
8.5 K | 0.945 ± 0.019
8.863 K | 1.101 ± 0.043
9 K | 1.152 ± 0.021
9.3 K | 1.292 ± 0.043
9.5 K | 1.385 ± 0.023
9.864 K | 1.569 ± 0.044
10 K | 1.644 ± 0.025
10.35 K | 1.83 ± 0.045
10.97 K | 2.212 ± 0.045
11 K | 2.219 ± 0.029
11.52 K | 2.546 ± 0.047
12 K | 2.871 ± 0.034
12.19 K | 2.736 ± 0.047
12.72 K | 3.408 ± 0.049
13 K | 3.59 ± 0.039
13.56 K | 4.028 ± 0.051
14 K | 4.364 ± 0.043
14.25 K | 4.551 ± 0.052
15 K | 5.182 ± 0.048
15.07 K | 5.238 ± 0.054
15.84 K | 5.872 ± 0.055
16 K | 6.036 ± 0.052
16.59 K | 6.471 ± 0.057
17 K | 6.917 ± 0.056
17.61 K | 7.437 ± 0.059
18 K | 7.819 ± 0.06
18.42 K | 8.194 ± 0.061
18.99 K | 8.794 ± 0.062
19 K | 8.734 ± 0.064
20 K | 9.657 ± 0.067
20.27 K | 9.969 ± 0.064
21.17 K | 10.74 ± 0.055
22.58 K | 12.06 ± 0.058
23.64 K | 13.08 ± 0.059
25 K | 14.25 ± 0.076
25.13 K | 14.39 ± 0.06
26.29 K | 15.41 ± 0.061
27.98 K | 16.85 ± 0.06
29.32 K | 17.97 ± 0.059
30 K | 18.55 ± 0.079
31.15 K | 19.42 ± 0.063
32.68 K | 20.56 ± 0.065
34.69 K | 22.14 ± 0.067
35 K | 22.47 ± 0.086
36.33 K | 23.55 ± 0.069
38.59 K | 25.09 ± 0.071
40 K | 26.03 ± 0.093
40.53 K | 26.51 ± 0.073
42.93 K | 27.98 ± 0.075
45 K | 29.36 ± 0.1
45.13 K | 29.46 ± 0.078
47.76 K | 31.18 ± 0.08
50 K | 32.58 ± 0.11
50.2 K | 32.51 ± 0.082
53.12 K | 34.56 ± 0.086
55 K | 35.68 ± 0.11
55.82 K | 36.43 ± 0.088
59.09 K | 38.3 ± 0.091
60 K | 38.82 ± 0.12
62.21 K | 40.2 ± 0.094
65 K | 41.94 ± 0.12
65.77 K | 42.39 ± 0.097
69.15 K | 44.37 ± 0.1
70 K | 45.05 ± 0.13
73.12 K | 46.67 ± 0.1
75 K | 48.14 ± 0.14
76.88 K | 49.05 ± 0.11
80 K | 51.21 ± 0.14
81.26 K | 51.82 ± 0.11
85 K | 54.27 ± 0.15
85.51 K | 54.66 ± 0.12
90 K | 57.3 ± 0.26
90.3 K | 57.7 ± 0.2
95 K | 60.32 ± 0.26
95.15 K | 60.59 ± 0.2
100 K | 63.33 ± 0.26
100.35 K | 63.68 ± 0.2
105.25 K | 66.61 ± 0.21
110 K | 69.28 ± 0.27
110.61 K | 69.55 ± 0.21
115.43 K | 72.27 ± 0.21
120 K | 75.18 ± 0.28
120.64 K | 75.36 ± 0.21
125.54 K | 78.61 ± 0.22
130 K | 81.02 ± 0.28
130.77 K | 81.56 ± 0.22
135.74 K | 84.75 ± 0.22
140 K | 86.83 ± 0.29
140.87 K | 87.47 ± 0.22
145.76 K | 90.11 ± 0.23
150 K | 92.61 ± 0.29
151.03 K | 93.15 ± 0.23
155.98 K | 95.92 ± 0.23
160 K | 98.36 ± 0.3
161.11 K | 99.11 ± 0.23
166.15 K | 102.13 ± 0.23
170 K | 104.1 ± 0.3
171.25 K | 104.92 ± 0.24
176.34 K | 107.5 ± 0.24
180 K | 109.83 ± 0.31
181.48 K | 110.56 ± 0.24
186.59 K | 113.51 ± 0.24
190 K | 115.56 ± 0.32
191.69 K | 116.09 ± 0.25
196.81 K | 119.53 ± 0.25
200 K | 121.29 ± 0.32
201.94 K | 122.16 ± 0.25
207.17 K | 125.24 ± 0.25
210 K | 127.02 ± 0.33
212.26 K | 128.07 ± 0.25
217.5 K | 130.91 ± 0.26
220 K | 132.76 ± 0.33
222.61 K | 134.51 ± 0.26
227.74 K | 137.35 ± 0.26
230 K | 138.51 ± 0.34
232.87 K | 140.48 ± 0.26
237.95 K | 142.93 ± 0.27
240 K | 144.27 ± 0.34
243.02 K | 146.31 ± 0.27
248.07 K | 148.9 ± 0.27
250 K | 150.04 ± 0.35
253.18 K | 152.43 ± 0.27
258.24 K | 154.94 ± 0.28
260 K | 155.83 ± 0.36
263.22 K | 158.02 ± 0.28
268.36 K | 160.56 ± 0.28
270 K | 161.64 ± 0.36
273.15 K | 163.47 ± 0.36
273.41 K | 163.59 ± 0.28
278.46 K | 166.47 ± 0.28
280 K | 167.46 ± 0.37
283.51 K | 169.47 ± 0.29
288.47 K | 172.37 ± 0.29
290 K | 173.3 ± 0.37
293.61 K | 175.31 ± 0.29
298.15 K | 178.08 ± 0.38
298.67 K | 177.87 ± 0.29
300 K | 179.16 ± 0.38
303.66 K | 181.61 ± 0.3

From the NIST ThermoML archive (doi:10.1016/j.jct.2012.09.028)
